Laboratory results from patent US20230033582A1, “POLYMERIC NANOPARTICLES FOR ENHANCED CANCER TREATMENT” (THE QUEEN'S UNIVERSITY OF BELFAST, priority 2019, published 2023).
Values belong to the compound of their own block, whether it stands above or below them.

Experiments:
[1] = target: SIINFEKL bound to MHC class I on the cell surface (UniProt P01901); assay: flow cytometry, JAWS II cells treated with free SIINFEKL
MC38 cells = assay: Flow cytometry of SIINFEKL presentation on MHC I (SIINFEKL-bound MHC antibody) in MC38 cells; type: cell-based; settings: for presentation of NP-encapsulated OVA-derived SIINFEKL after pre-treatment: then OVA-NPs for 6 hours
Procedure: FIG. 8: illustrate the results of Gemcitabine enhances SIINFEKL presentation: MC38 cells were pretreated with 30 nm Gemcitabine for 24 hours. Then, cells were treated with 1 μM SIINFEKL peptide for 6 hours. After 6 hours, cells were stained with PE-SIINFEKL-bound MHC antibody to determine the levels of SIINFEKL presentation. Presentation of SIINFEKL was enhanced after pre-treatment with Gemcitabine highlighting the potential of boosting CD8+ T cell recognition of tumour cells through combining the nanoformulation with Gemcitabine;
(§1) FIG. 9: illustrate the results of Gemcitabine enhances the presentation of Ovalbumin-derived SIINFEKL encapsulated within nanoparticles: MC38 cells were pre-treated with 7.5, 15 and 30 nm Gemcitabine for 24 hours. Then, the cells were treated with OVA-NPs for 6 hours. After 6 hours, cells were stained with PE-SIINFEKL-Bound MHC antibody and an isotype control antibody to determine levels of OVA-derived SIINFEKL presentation. NP-encapsulated OVA-derived SIINFEKL was seen to be enhanced after pre-treatment with Gemcitabine;
FIG. 10: illustrate the results of Epigenetic modifying agents (EMAs) enhance the presentation of Ovalbumin-derived SIINFEKL encapsulated within nanoparticles: MC38 cells were pre-treated with Entinostat and Decitabine. After 24 hours, cells were treated with OVA-NPs (250 μg/mL) for 6 hours. Cells were stained with SIINFEKL-bound MHC antibody and the surface presentation of SIINFEKL was determined by flow cytometry. Both agents in combination enhanced SIINFEKL presentation;
as §1, with “11:” for “9:”, “Lysosome disruptive agent L-leucyl-L-leucine methyl ester (LLOME)” for “Gemcitabine”, “LLOME” for “7.5, 15 and 30 nm Gemcitabine”, “PE-SIINFEKL-bound” for “PE-SIINFEKL-Bound”, “LLOME;” for “Gemcitabine;”
as §1, with “12:” for “9:”, “the anti-malarial Mefloquine” for “Gemcitabine”, “Mefloquine” for “7.5, 15 and 30 nm Gemcitabine”, “PE-SIINFEKL-bound” for “PE-SIINFEKL-Bound”, “Mefloquine.” for “Gemcitabine;”
MC38 cells were seeded at 5×10^4 in 6 well plates and left overnight to adhere in 2 mL of the appropriate growth medium. Following this, the cells were treated with 250 μg/mL of either acid terminated poly(lactic-co-glycolic acid) (PLGA) nanoparticles (NPs) or PLGA NPs encapsulating the SIINFEKL peptide (for cells treated at 4 degrees C., cells were maintained at 4° C. for 45 minutes prior to treatment). Following treatment, the cells were washed 3 times with sterile PBS (4° C. treatment group were washed on ice) and the cells incubated for a following 6 hours at 37° C. The surface expression of SIINFEKL was determined by flow cytometry.
MC38 cells were seeded at 5×10^4 in 6 well plates and left overnight to adhere in 2 mL of the appropriate growth medium. Following this, the cells were treated with 250 μg/mL of either acid terminated poly(lactic-co-glycolic acid) (PLGA) nanoparticles (NPs) or PLGA NPs encapsulating the Ovalbumin protein. Free, pre-processed SIINFEKL was used as a positive control. Cells were incubated for 24 hours at 37° C. Following this, the cells were collected and incubated with a PE-conjugated antibody specific for MHC-I bound to the SIINFEKL peptide (Biolegend, USA). Next, presentation of the SIINFEKL peptide was assessed by flow cytometry. […]

JAWS II cells = assay: Flow cytometry of SIINFEKL presentation on MHC I (SIINFEKL-bound MHC antibody) in JAWS II dendritic cell line; type: cell-based; settings: FIG. 5, free SIINFEKL positive control, 6 hours
Procedure: FIG. 5: illustrate the results of Nanoparticle encapsulated SIINFEKL is presented on MHC I in the JAWS II dendritic cell line: JAWS II cells were seeded in 6 well plates at 1×10^5 and left overnight. The following day, cells were treated with either 500 μg of PLGA-SIINFEKL NP (SIINFEKL NP), PLGA NP (B-NP) or free SIINFEKL (Positive control). The cells were incubated at 37° C. in 5% CO2 for 6 hours. After incubation, an antibody specific for SIINFEKL bound to MHC I was used to detect cell surface expression of the antigen. Assessment was undertaken using flow cytometry. An Isotype specific IgG control (SIINFEKL IgG) was used to detect non-specific binding of the antibody. […] Diagram is a representative figure from 3 independent experiments;
FIG. 6: illustrate the results of Presentation of nanoparticle-encapsulated SIINFEKL is dependent on endocytosis: (A) JAWS II cells and (B) MC38 cells ells were treated with either 250 μg/mL blank nanoparticles (B-NP), 250 μg/mL nanoparticles encapsulating the SIINFEKL peptide (SIINFEKL-NP) or 1 μM free SIINFEKL (positive control) for 1 hour at either 4° C. or 37° C. Cells were washed to remove non-endocytosed nanoparticles or free peptide and were incubated at 37° C. Cells were stained with SIINFEKL-bound MHC antibody and SIINFEKL presentation was determined by flow cytometry. […]

[2] = FIG. 11 and 12, MC38 cells pre-treated for 24 hours

- positive cells [1]: 100%
Compound: PE-conjugated antibody specific for MHC-I bound to the SIINFEKL peptide (Biolegend, USA)

Compound: OC(c1cc(C(F)(F)F)nc2c(C(F)(F)F)cccc12)C1CCCCN1 (centres unmarked) [Mefloquine]
- presentation of NP-encapsulated OVA-derived SIINFEKL after pre-treatment (MC38 cells; [2]): enhanced

Compound: SIINFEKL (Model Peptide) [SIINFEKL peptide, positive control]
- cells positive for SIINFEKL-MHC I antibody staining (JAWS II cells): ~100%
- SIINFEKL on the cell surface (fluorescent signal, geomean) (MC38 cells; FIG. 3, MC38 cells, 1 μM SIINFEKL peptide for 4 hours): high levels SIINFEKL on the surface

Compound: COC(=O)[C@H](CC(C)C)NC(=O)[C@@H](N)CC(C)C [LLOME, L-leucyl-L-leucine methyl ester]
- presentation of NP-encapsulated OVA-derived SIINFEKL after pre-treatment (MC38 cells; [2]): enhanced

Compound: Nc1ccn([C@@H]2O[C@H](CO)[C@@H](O)C2(F)F)c(=O)n1 [Gemcitabine]
- Presentation of SIINFEKL after pre-treatment (MC38 cells; FIG. 8, MC38 cells pretreated with 30 nm Gemcitabine for 24 hours, then 1 μM SIINFEKL peptide for 6 hours): enhanced
- presentation of NP-encapsulated OVA-derived SIINFEKL after pre-treatment (MC38 cells; FIG. 9, MC38 cells pre-treated with 7.5, 15 and 30 nm Gemcitabine for 24 hours): enhanced

Compound: Nc1ccccc1NC(=O)c1ccc(CNC(=O)OCc2cccnc2)cc1 [Entinostat]
- SIINFEKL presentation after pre-treatment, both agents in combination (MC38 cells; FIG. 10, MC38 cells pre-treated with Entinostat and Decitabine 24 hours, then OVA-NPs (250 μg/mL) for 6 hours): enhanced
